For 13 compounds, EC50 results are on record in ChEMBL document CHEMBL1136685, “Structure-activity relationship of cyclic peptide penta-c[Asp-His(6)-DPhe(7)-Arg(8)-Trp(9)-Lys]-NH(2) at the human melanocortin-1 and -4 receptors: His(6) substitution” (Bioorg Med Chem Lett, 2003).

pEC50: −log10 of the molar value.

What is called pEC50 is the EC50 on a negative log10 scale, so that one unit is a factor of ten. Read a high pEC50 as a small EC50.

In test [1] the target is Melanocortin receptor 4 (Homo sapiens, UniProt P32245). Briefly: Agonist activity at human melanocortin receptor (hMC4R). Format: functional.
In test [2] the target is Melanocyte-stimulating hormone receptor (Homo sapiens, UniProt Q01726). Nature of the test: Agonist activity at human melanocortin receptor (hMC1R). Format: functional.
Melanocyte-stimulating hormone receptor, sequence (Q01726 whole entry): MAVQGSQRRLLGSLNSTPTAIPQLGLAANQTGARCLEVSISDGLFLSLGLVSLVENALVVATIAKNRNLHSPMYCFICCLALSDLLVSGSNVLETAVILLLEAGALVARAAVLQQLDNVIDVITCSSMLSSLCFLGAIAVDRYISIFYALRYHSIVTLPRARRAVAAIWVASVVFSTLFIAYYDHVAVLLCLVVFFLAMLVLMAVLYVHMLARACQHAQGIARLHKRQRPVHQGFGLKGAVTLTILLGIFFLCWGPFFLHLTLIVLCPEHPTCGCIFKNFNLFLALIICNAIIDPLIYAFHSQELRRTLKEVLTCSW

Melanocortin receptor 4, sequence (P32245 whole entry): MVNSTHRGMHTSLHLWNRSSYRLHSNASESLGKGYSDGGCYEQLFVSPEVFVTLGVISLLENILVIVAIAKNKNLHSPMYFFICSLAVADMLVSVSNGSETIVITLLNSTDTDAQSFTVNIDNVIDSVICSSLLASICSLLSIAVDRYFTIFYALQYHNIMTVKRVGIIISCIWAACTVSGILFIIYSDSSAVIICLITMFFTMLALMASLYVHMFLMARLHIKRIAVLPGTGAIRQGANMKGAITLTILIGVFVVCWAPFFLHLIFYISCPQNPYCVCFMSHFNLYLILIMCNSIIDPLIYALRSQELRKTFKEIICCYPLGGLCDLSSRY

On to `CCCCC(=O)N[C@H]1CC(=O)NCCCC[C@@H](C(N)=O)NC(=O)[C@H](Cc2c[nH]c3ccccc23)NC(=O)[C@H](CCCN=C(N)N)NC(=O)[C@@H](Cc2ccccc2)NC(=O)[C@@]2(CCc3c(CC)cccc3C2)NC1=O`, for which the pEC50 in test [1] was 8.10; in test [2], 6.38. Regarding `CCCCC(=O)N[C@H]1CC(=O)NCCCC[C@@H](C(N)=O)NC(=O)[C@H](Cc2c[nH]c3ccccc23)NC(=O)[C@H](CCCN=C(N)N)NC(=O)[C@@H](Cc2ccccc2)NC(=O)[C@@H]2Cc3ccccc3CN2C1=O`, the results for the pEC50 in test [1] and in test [2] were 8.52 and 8.30, respectively. The matching figures for `CCCC[C@H](NC(C)=O)C(=O)N[C@H]1CC(=O)NCCCC[C@@H](C(N)=O)NC(=O)[C@H](Cc2c[nH]c3ccccc23)NC(=O)[C@H](CCCN=C(N)N)NC(=O)[C@@H](Cc2ccccc2)NC(=O)[C@H](CCC(N)=O)NC1=O`: 9.52 and 9.52.

`CCCCC(=O)N[C@H]1CC(=O)NCCCC[C@@H](C(N)=O)NC(=O)[C@H](Cc2c[nH]c3ccccc23)NC(=O)[C@H](CCCNC(=N)N)NC(=O)[C@@H](Cc2ccccc2)NC(=O)C2(Cc3ccccc3C2)NC1=O`: the pEC50 was 7.19 in test [1] and 6.43 in test [2]. For `CCCCC(=O)N[C@H]1CC(=O)NCCCC[C@@H](C(N)=O)NC(=O)[C@H](Cc2c[nH]c3ccccc23)NC(=O)[C@H](CCCN=C(N)N)NC(=O)[C@@H](Cc2ccccc2)NC(=O)[C@H](Cc2ccc(C(F)(F)F)cc2)NC1=O`, the pEC50 is 8.70 in test [1] and 7.92 in test [2].

`CCCCC(=O)N[C@H]1CC(=O)NCCCC[C@@H](C(N)=O)NC(=O)[C@H](Cc2c[nH]c3ccccc23)NC(=O)[C@H](CCCN=C(N)N)NC(=O)[C@@H](Cc2ccccc2)NC(=O)C2(CCc3cc(Br)ccc3C2)NC1=O` (mixture of isomers): the pEC50 in test [1] is 7.43. In the case of `CCCCC(=O)N[C@H]1CC(=O)NCCCC[C@@H](C(N)=O)NC(=O)[C@H](Cc2c[nH]c3ccccc23)NC(=O)[C@H](CCCN=C(N)N)NC(=O)[C@@H](Cc2ccccc2)NC(=O)C2(CCc3cc(Cl)ccc3C2)NC1=O` (mixture of isomers), the pEC50 in test [1] was 7.48. This pEC50 and that of the compound before are within 0.2 log units of each other.

In turn, `CCCCC(=O)N[C@H]1CC(=O)NCCCC[C@@H](C(N)=O)NC(=O)[C@H](Cc2c[nH]c3ccccc23)NC(=O)[C@H](CCCN=C(N)N)NC(=O)[C@@H](Cc2ccccc2)NC(=O)C2(CCc3cccc(Br)c3C2)NC1=O` (mixture of isomers) had a pEC50 in test [1] of 6.75. As to `CCCCC(=O)N[C@H]1CC(=O)NCCCC[C@@H](C(N)=O)NC(=O)[C@H](Cc2c[nH]c3ccccc23)NC(=O)[C@H](CCCNC(=N)N)NC(=O)[C@@H](Cc2ccccc2)NC(=O)C2(CCc3ccc(Br)cc3C2)NC1=O` (mixture of isomers), the negative logarithm of the EC50 (pEC50) is 8.00 in test [1] and 6.85 in test [2]. As to `CCCCC(=O)N[C@H]1CC(=O)NCCCC[C@@H](C(N)=O)NC(=O)[C@H](Cc2c[nH]c3ccccc23)NC(=O)[C@H](CCCN=C(N)N)NC(=O)[C@@H](Cc2ccccc2)NC(=O)C2(CCc3c(Cl)cccc3C2)NC1=O` (mixture of isomers), the pEC50 in test [1] was 8.05. In the case of `CCCCC(=O)N[C@H]1CC(=O)NCCCC[C@@H](C(N)=O)NC(=O)[C@H](Cc2c[nH]c3ccccc23)NC(=O)[C@H](CCCN=C(N)N)NC(=O)[C@@H](Cc2ccccc2)NC(=O)C2(CCc3c(cccc3OC(C)C)C2)NC1=O` (mixture of isomers), the pEC50 was 8.15 in test [1] and 5.88 in test [2]. As for `CCCCC(=O)N[C@H]1CC(=O)NCCCC[C@@H](C(N)=O)NC(=O)[C@H](Cc2c[nH]c3ccccc23)NC(=O)[C@H](CCCN=C(N)N)NC(=O)[C@@H](Cc2ccccc2)NC(=O)C2(CCc3c(Br)cccc3C2)NC1=O` (single isomer, unassigned; form 1), the pEC50 in test [1] was 7.82. In test [1], `CCCCC(=O)N[C@H]1CC(=O)NCCCC[C@@H](C(N)=O)NC(=O)[C@H](Cc2c[nH]c3ccccc23)NC(=O)[C@H](CCCN=C(N)N)NC(=O)[C@@H](Cc2ccccc2)NC(=O)C2(CCc3c(Br)cccc3C2)NC1=O` (single isomer, unassigned; form 2) showed a pEC50 of 7.39. Against the preceding compound, the pEC50 is 0.43 log units lower.
